In patent publication US20100022562A1, “Use of Plant Growth Regulators to Reduce Abscisic Acid Related Plant Leaf Yellowing” (priority 2008, published 2010):
Values belong to the compound of their own block, whether it stands above or below them.

What was measured:
Pansy plants [1] = test: Pansy shelf life under drought (daily wilting rating, sales index); type: in vivo
Description: (§1) All studies were conducted in the greenhouse at the research farm of Valent BioSciences Corporation (Long Grove, Ill.). Pansy plants were obtained either from local retailers as mature plants, or plugs from wholesale nurseries. Plugs of Pansy plants were transplanted into an 18-cell flat filled with Promix BX (available from Premier Horticulture Inc. Quakertown, Pa.) and grown for about 30 days prior to treatment. During growing periods, plants received daily irrigation and weekly fertilizer (1 g/L all purpose fertilizer 20-20-20, The Scotts Company, Marysville, Ohio).
(§2) Uniform plants were selected for the study. Prior to chemical treatment, plants were saturated with water and then drained for about two hours. A total of 20 mL chemical solution, which is equivalent to about 10% of the cell volume, was applied to each plant with 3 mL solution foliar applied to canopy and 17 mL solution drench applied to root zone. Unless specified, watering of plants was stopped after chemical treatment.
(§3) After chemical treatment, plants were arranged in a randomized complete block experimental design. The plants were rated daily for the extent of wilting on a scale from 1 (no wilting) to 4 (complete wilting) to generated a sales index rating. A rating of 2.5 was the point at which a plant was determined to be unmarketable and the previous day was recorded as the shelf life of that plant in days. Yellow leaf number was counted at 3 days after chemical treatment. Leaf transpiration rate was measured after treatment using a LI-1600 Steady State Porometer (LI-Cor, Lincoln, Nebr.). The transpiration rate of each treatment was calculated as the percentage of that of control at each day to reduce day-to-day variation caused by changes of environmental condition such as light intensity, humidity, and temperature.

Pansy plants [2] = test: Pansy yellow leaf number (leaf yellowing); type: in vivo
Description: as §1, §2
as §3, with “Yellow leaf number was counted at 3 days after chemical treatment.” left out

[3] = 0.3 mg, Matrix Orange, drought, Table 2
[4] = 3 mg, Matrix Orange, drought, Table 2
[5] = 0.3 mg, Matrix Orange, drought, 3 d after treatment, Table 2
[6] = 3 mg, Matrix Orange, drought, 3 d after treatment, Table 2

Yellow leaf number (Pansy plants [2]; [5]): 9.2 | Yellow leaf number (Pansy plants [2]; [6]): 11.5
SMILES: COC(=O)C=C(C)C=CC1(O)c2ccccc2C(=O)CC1(C)C (mixture of isomers) [PBI-488, tetralone, ester]
Shelf life (Pansy plants [1]; [3]): 5.3 days | Shelf life (Pansy plants [1]; [4]): 7.0 days

Yellow leaf number (Pansy plants [2]; [5]): 10.8 | Yellow leaf number (Pansy plants [2]; [6]): 11.0
SMILES: COC(=O)C=C(C)C#CC1(O)c2ccccc2C(=O)CC1(C)C (mixture of isomers) [PBI-702, tetralone, first carbon tail acetylene, ester]
Shelf life (Pansy plants [1]; [3]): 4.7 days | Shelf life (Pansy plants [1]; [4]): 7.0 days

Yellow leaf number (Pansy plants [2]; 3 mg, Delta Premium Pure Golden Yellow, advanced seedling stage (1 month old), drought, 3 d after treatment, Table 4): 8.2 | Yellow leaf number (Pansy plants [2]; 3 mg, Delta Premium Pure Golden Yellow, drought, 3 d after treatment, Table 3): 7.5 | Yellow leaf number (Pansy plants [2]; 30 mg, Delta Premium Pure Golden Yellow, advanced seedling stage (1 month old), drought, 3 d after treatment, Table 4): 8.8 | Yellow leaf number (Pansy plants [2]; 30 mg, Delta Premium Pure Golden Yellow, drought, 3 d after treatment, Table 3): 8.0
SMILES: C/C(C#C[C@]1(O)C(C)CC(=O)CC1(C)C)=C/CO (some centres unmarked) [PBI-51]
Shelf life (Pansy plants [1]; 3 mg, Delta Premium Pure Golden Yellow, advanced seedling stage (1 month old), drought, Table 4): 3.7 days | Shelf life (Pansy plants [1]; 3 mg, Delta Premium Pure Golden Yellow, drought, Table 3): 5.0 days | Shelf life (Pansy plants [1]; 30 mg, Delta Premium Pure Golden Yellow, advanced seedling stage (1 month old), drought, Table 4): 3.5 days | Shelf life (Pansy plants [1]; 30 mg, Delta Premium Pure Golden Yellow, drought, Table 3): 5.0 days

Yellow leaf number (Pansy plants [2]; [5]): 11.0 | Yellow leaf number (Pansy plants [2]; [6]): 11.2
SMILES: C#CC1(C)CC(=O)C=C(C)C1(O)C=CC(C)=CC(=O)O (centres unmarked) [PBI-524, 8′ acetylene-ABA, acid]
Shelf life (Pansy plants [1]; [3]): 6.5 days | Shelf life (Pansy plants [1]; [4]): 8.8 days

Continued, compound first:

SMILES: COC(=O)C=C(C)C=CC1(O)C(C)=CC(=O)CC1(C)C1CC1 (centres unmarked) [PBI-696, 8′ cyclopropane ester]
Shelf life (Pansy plants [1]; [3]): 5.3 days | Shelf life (Pansy plants [1]; [4]): 7.8 days | Yellow leaf number (Pansy plants [2]; [5]): 9.0

SMILES: CC1=CC1 [MCP, 1-methylcyclopropene]
Shelf life (Pansy plants [1]; 10 μL L^−1 MCP (12 hours) at 0 hrs, Delta Premium Pure White, Table 22): 4.0 days | Shelf life (Pansy plants [1]; 10 μL L^−1 MCP (12 hours) at +24 hrs, Delta Premium Pure White, Table 22): 4.0 days | Shelf life (Pansy plants [1]; 10 μL L^−1 MCP (12 hours) at −24 hrs, Delta Premium Pure White, Table 22): 4.0 days | Shelf life (Pansy plants [1]; 10 μL L^−1 MCP for 12 hours, Colossus Formula Mix, no water, Table 20): 4.2 days | Shelf life (Pansy plants [1]; 10 μL L^−1 MCP for 24 hours, Delta Premium Pure White, Table 21): 7.0 days | Shelf life (Pansy plants [1]; 10 μL L^−1 MCP, Delta Premium Pure White, Table 23): 4.5 days | Yellow leaf number (Pansy plants [2]; 10 μL L^−1 MCP (12 hours) at 0 hrs, Delta Premium Pure White, 3 days after treatment, Table 22): 1.8 | Yellow leaf number (Pansy plants [2]; 10 μL L^−1 MCP (12 hours) at 0 hrs, Delta Premium Pure White, 7 days after treatment, Table 22): 4.0 | Yellow leaf number (Pansy plants [2]; 10 μL L^−1 MCP (12 hours) at +24 hrs, Delta Premium Pure White, 3 days after treatment, Table 22): 2.2 | Yellow leaf number (Pansy plants [2]; 10 μL L^−1 MCP (12 hours) at +24 hrs, Delta Premium Pure White, 7 days after treatment, Table 22): 4.0 | Yellow leaf number (Pansy plants [2]; 10 μL L^−1 MCP (12 hours) at −24 hrs, Delta Premium Pure White, 3 days after treatment, Table 22): 2.0 | Yellow leaf number (Pansy plants [2]; 10 μL L^−1 MCP (12 hours) at −24 hrs, Delta Premium Pure White, 7 days after treatment, Table 22): 4.0 | Yellow leaf number (Pansy plants [2]; 10 μL L^−1 MCP for 12 hours, Colossus Formula Mix, 3 days after treatment, Table 20): 0.2 | Yellow leaf number (Pansy plants [2]; 10 μL L^−1 MCP for 12 hours, Colossus Formula Mix, 8 days after treatment, Table 20): 1.7 | Yellow leaf number (Pansy plants [2]; 10 μL L^−1 MCP for 24 hours, Delta Premium Pure White, 3 days after treatment, Table 21): 0.0 | Yellow leaf number (Pansy plants [2]; 10 μL L^−1 MCP for 24 hours, Delta Premium Pure White, 8 days after treatment, Table 21): 0.7 | Yellow leaf number (Pansy plants [2]; 10 μL L^−1 MCP, Delta Premium Pure White, 3 days after treatment, Table 23): 3.2 | Yellow leaf number (Pansy plants [2]; 10 μL L^−1 MCP, Delta Premium Pure White, 7 days after treatment, Table 23): 6.7

SMILES: O=C(Nc1ccccc1)Nc1ccnc(Cl)c1 [CPPU, N1-(2-chloro-4-pyridyl)-N3-phenylurea]
Shelf life (Pansy plants [1]; 0.02 mg CPPU, Matrix Yellow, Table 6): 3.2 days | Shelf life (Pansy plants [1]; 0.2 mg CPPU, Matrix Yellow, Table 6): 2.8 days | Yellow leaf number (Pansy plants [2]; 0.02 mg CPPU, Matrix Yellow, 3 d after treatment, Table 6): 7.7 | Yellow leaf number (Pansy plants [2]; 0.2 mg CPPU, Matrix Yellow, 3 d after treatment, Table 6): 5.7

SMILES: CCOC(=O)C1CC(=O)C(=C(O)C2CC2)C(=O)C1 (centres unmarked) [TE, trinexapac-ethyl]
Shelf life (Pansy plants [1]; 30 mg, Matrix Yellow, drought, Table 10): 2.5 days | Yellow leaf number (Pansy plants [2]; 30 mg, Matrix Yellow, drought, 3 d after treatment, Table 10): 8.7
